Test results: US20170107179A1 (Tetraphase Pharmaceuticals, Inc., priority 2010, published 2017)
Values after ≈ are worked out from the molar mass of the structure shown. Like-named read-outs stand apart in the source and are kept apart here.

Columns and labels:
[1] = test system: E. coli DH10B EC1153 Tet(X); assay: MIC, E. coli DH10B recombinantly expressing tetracycline-resistance gene; details: arabinose-induced, ampicillin in medium
E. coli DH10B EC970 TetK = assay: as above; details: arabinose-induced, ampicillin in medium
E. coli DH10B EC969 TetM = assay: as above; details: arabinose-induced, ampicillin in medium
[2] = test system: E. coli DH10B EC1083 TetB; assay: as above; details: arabinose-induced, ampicillin in medium
E. coli DH10B EC971 LacZ = assay: MIC, E. coli DH10B recombinantly expressing control gene; details: E. coli DH10B, arabinose-induced, ampicillin in medium
[3] = test system: E. coli DH10B EC1082 TetA; assay: MIC, E. coli DH10B recombinantly expressing tetracycline-resistance gene; details: arabinose-induced, ampicillin in medium
S. aureus Smith = assay: Mouse systemic infection (septicemia) model, CD-1 mice; details: Staphylococcus aureus, in Mus musculus, 48 h; for responders at 3 mg/kg: iv, read-out: Percent survival at 48 hours, IV (3 mg/kg); for responders at 30 mg/kg: po, read-out: Percent survival at 48 hours, PO (30 mg/kg)
Gram-positive pathogens = assay: Broth microdilution MIC, respiratory/skin pathogens (Table 12); details: E. faecalis, VAN S (n = 53)
[4] = test system: Legionella pneumophila, 70 isolates, serogroups 1-6; assay: microbe, parasite or virus in culture; assay type: cell-based
[5] = test system: Gram-negative and Gram-positive organisms (clinical isolates); assay: Broth microdilution MIC against clinical isolates (CLSI M7-A8), Table 9; assay type: cell-based

| SMILES | responders at 3 mg/kg (S. aureus Smith) [%] | responders at 30 mg/kg (S. aureus Smith) [%] | also measured |
| --- | --- | --- | --- |
| CO/N=C(\C(=O)N[C@@H]1C(=O)N2C(C(=O)O)=C(CSc3nc(=O)c(=O)[nH]n3C)CS[C@H]12)c1csc(N)n1 [Ceftriaxone] |  |  | MIC EC1153 Tet(X) [1]: 0.125; MIC EC970 TetK (E. coli DH10B EC970 TetK): 0.0625; MIC EC969 TetM (E. coli DH10B EC969 TetM): 0.5; MIC EC1083 TetB [2]: 0.0625; MIC EC971 LacZ (E. coli DH10B EC971 LacZ): 0.125; MIC EC1082 TetA [3]: 0.0625 |
| CCCN1Cc2c(O)c3c(c(Cl)c2C1)C[C@H]1C[C@H]2[C@H](N(C)C)C(O)=C(C(N)=O)C(=O)[C@@]2(O)C(O)=C1C3=O [Compound 149] | 17 | 0 |  |
| CN1CC(=O)Nc2c(O)c3c(c(F)c2C1)C[C@H]1C[C@H]2[C@H](N(C)C)C(O)=C(C(N)=O)C(=O)[C@@]2(O)C(O)=C1C3=O [Compound 416] | 100 | 20 |  |
| CN(C)c1c2c(c(O)c3c1C[C@H]1C[C@H]4[C@H](N(C)C)C(O)=C(C(N)=O)C(=O)[C@@]4(O)C(O)=C1C3=O)CN(C(C)(C)C)C2 [Compound 115] | 100 | 100 |  |
| C[C@@H](O)[C@H]1C(=O)N2C(C(=O)O)=C(SCCN=CN)C[C@H]12 [Imipenern] |  |  | MIC50 (Gram-positive pathogens): 1 µg/mL (≈ 3.34 µM); MIC90 (Gram-positive pathogens): 1 µg/mL (≈ 3.34 µM) |
| CN(C)[C@@H]1C(O)=C(C(N)=O)C(=O)[C@@]2(O)C(O)=C3C(=O)c4c(O)c5c(c(F)c4C[C@H]3C[C@@H]12)CN(C1CCC1)C5 [Compound 132] | 50 | 50 |  |
| CC(C)N1Cc2c(O)c3c(c(F)c2C1)C[C@H]1C[C@H]2[C@H](N(C)C)C(O)=C(C(N)=O)C(=O)[C@@]2(O)C(O)=C1C3=O [Compound 143] | 83 | 100 |  |
| CC[C@H]1OC(=O)[C@H](C)[C@@H](O[C@H]2C[C@@](C)(OC)[C@@H](O)[C@H](C)O2)[C@H](C)[C@@H](O[C@@H]2O[C@H](C)C[C@H](N(C)C)[C@H]2O)[C@](C)(O)C[C@@H](C)C(=O)[C@H](C)[C@@H](O)[C@]1(C)O [Erythromycin] |  |  | MIC50 [4]: 0.25 µg/mL (≈ 0.341 µM); MIC90 [4]: 0.5 µg/mL (≈ 0.681 µM); MIC50 [5]: 0.03 µg/mL (≈ 0.0409 µM); MIC90 [5]: > 0.5 µg/mL; MIC50 ([5]; Staphylococcus aureus): > 4 µg/mL; MIC90 ([5]; Staphylococcus aureus): > 4 µg/mL; MIC50 ([5]; Streptococcus anginosus): 0.03 µg/mL (≈ 0.0409 µM); MIC90 ([5]; Streptococcus anginosus): > 0.5 µg/mL; MIC50 ([5]; Streptococcus intermedius): 0.06 µg/mL (≈ 0.0818 µM); MIC90 ([5]; Streptococcus intermedius): > 0.5 µg/mL; MIC50 ([5]; Streptococcus mitis): > 0.5 µg/mL; MIC90 ([5]; Streptococcus mitis): > 0.5 µg/mL |
| CCC(C)(C)N1Cc2c(O)c3c(c(F)c2C1)C[C@H]1C[C@H]2[C@H](N(C)C)C(O)=C(C(N)=O)C(=O)[C@@]2(O)C(O)=C1C3=O [Compound 129] | 50 | 0 |  |
| CN(C)[C@@H]1C(O)=C(C(N)=O)C(=O)[C@@]2(O)C(O)=C3C(=O)c4c(O)c5c(c(F)c4C[C@H]3C[C@@H]12)CN(C(C)(C)C1CC1)C5 [Compound 118] | 17 | 50 |  |
| CC[C@H](C)N1Cc2c(O)c3c(c(F)c2C1)C[C@H]1C[C@H]2[C@H](N(C)C)C(O)=C(C(N)=O)C(=O)[C@@]2(O)C(O)=C1C3=O [Compound 123] | 33 | 67 |  |
| CN(C)[C@@H]1C(O)=C(C(N)=O)C(=O)[C@@]2(O)C(O)=C3C(=O)c4c(O)c5c(c(Cl)c4C[C@H]3C[C@@H]12)CN(C(C)(C)C)C5 [Compound 144] | 50 | 0 |  |
| CN(C)[C@@H]1C(O)=C(C(N)=O)C(=O)[C@@]2(O)C(O)=C3C(=O)c4c(O)c5c(c(F)c4C[C@H]3C[C@@H]12)CN1CCC[C@H]1C(=O)N5 [Compound 412] | 100 | 40 |  |
| CC(C)N1Cc2c(O)c3c(c(C(F)(F)F)c2C1)C[C@H]1C[C@H]2[C@H](N(C)C)C(O)=C(C(N)=O)C(=O)[C@@]2(O)C(O)=C1C3=O [Compound 126] | 83 | 100 |  |
| CCC[C@@H]1C[C@@H](C(=O)N[C@@H]([C@H]2O[C@H](SC)[C@H](O)[C@@H](O)[C@H]2O)[C@H](C)Cl)N(C)C1 [Clindarnycin] |  |  | MIC50 (Gram-positive pathogens): > 2 µg/mL; MIC90 (Gram-positive pathogens): > 2 µg/mL |
| C[C@@H]1C(=O)Nc2c(O)c3c(c(F)c2CN1C)C[C@H]1C[C@H]2[C@H](N(C)C)C(O)=C(C(N)=O)C(=O)[C@@]2(O)C(O)=C1C3=O [Compound 406] | 100 | 40 |  |
| CC(C)N1Cc2c(O)c3c(c(N(C)C)c2C1)C[C@H]1C[C@H]2[C@H](N(C)C)C(O)=C(C(N)=O)C(=O)[C@@]2(O)C(O)=C1C3=O [Compound 135] | 100 | 100 |  |
| CCC(C)(C)N1Cc2c(O)c3c(c(N(C)C)c2C1)C[C@H]1C[C@H]2[C@H](N(C)C)C(O)=C(C(N)=O)C(=O)[C@@]2(O)C(O)=C1C3=O [Compound 103] | 83 | 100 |  |
| CC(C)C[C@@H]1CNc2c(O)c3c(c(F)c2CN1)C[C@H]1C[C@H]2[C@H](N(C)C)C(O)=C(C(N)=O)C(=O)[C@@]2(O)C(O)=C1C3=O [Compound 408] | 100 | 0 |  |
| CC(C)[C@@H](C)N1Cc2c(O)c3c(c(F)c2C1)C[C@H]1C[C@H]2[C@H](N(C)C)C(O)=C(C(N)=O)C(=O)[C@@]2(O)C(O)=C1C3=O [Compound 106] | 17 | 20 |  |
| CN(C)[C@@H]1C(O)=C(C(N)=O)C(=O)[C@@]2(O)C(O)=C3C(=O)c4c(O)c5c(c(F)c4C[C@H]3C[C@@H]12)CN1CCCC[C@@H]1C(=O)N5 [Compound 410] | 100 | 50 |  |
| CN(C)[C@@H]1C(O)=C(C(N)=O)C(=O)[C@@]2(O)C(O)=C3C(=O)c4c(O)c5c(c(F)c4C[C@H]3C[C@@H]12)CN(C(=O)CN1CC[C@H](F)C1)C5 [Compound 147] | 83 | 0 |  |
| CC(C)C[C@@H]1C(=O)Nc2c(O)c3c(c(F)c2CN1C)C[C@H]1C[C@H]2[C@H](N(C)C)C(O)=C(C(N)=O)C(=O)[C@@]2(O)C(O)=C1C3=O [Compound 428] | 50 | 0 |  |
| CCC(C)(C)N1Cc2c(O)c3c(c(OC)c2C1)C[C@H]1C[C@H]2[C@H](N(C)C)C(O)=C(C(N)=O)C(=O)[C@@]2(O)C(O)=C1C3=O [Compound 119] | 83 | 75 |  |
